# Like-named read-outs stand apart in the source and are kept apart here.
# Key:
# STAT5a = target: T1, STAT5a (Homo sapiens, UniProt P42229); assay: Fluorescence polarization competitive binding assay, STAT5a; conditions: for inhibition at 100 µM: read-out: Inhibition of STAT5a at 100 µM
# T1 construct: made in house
# T1 sequence (P42229 1-794): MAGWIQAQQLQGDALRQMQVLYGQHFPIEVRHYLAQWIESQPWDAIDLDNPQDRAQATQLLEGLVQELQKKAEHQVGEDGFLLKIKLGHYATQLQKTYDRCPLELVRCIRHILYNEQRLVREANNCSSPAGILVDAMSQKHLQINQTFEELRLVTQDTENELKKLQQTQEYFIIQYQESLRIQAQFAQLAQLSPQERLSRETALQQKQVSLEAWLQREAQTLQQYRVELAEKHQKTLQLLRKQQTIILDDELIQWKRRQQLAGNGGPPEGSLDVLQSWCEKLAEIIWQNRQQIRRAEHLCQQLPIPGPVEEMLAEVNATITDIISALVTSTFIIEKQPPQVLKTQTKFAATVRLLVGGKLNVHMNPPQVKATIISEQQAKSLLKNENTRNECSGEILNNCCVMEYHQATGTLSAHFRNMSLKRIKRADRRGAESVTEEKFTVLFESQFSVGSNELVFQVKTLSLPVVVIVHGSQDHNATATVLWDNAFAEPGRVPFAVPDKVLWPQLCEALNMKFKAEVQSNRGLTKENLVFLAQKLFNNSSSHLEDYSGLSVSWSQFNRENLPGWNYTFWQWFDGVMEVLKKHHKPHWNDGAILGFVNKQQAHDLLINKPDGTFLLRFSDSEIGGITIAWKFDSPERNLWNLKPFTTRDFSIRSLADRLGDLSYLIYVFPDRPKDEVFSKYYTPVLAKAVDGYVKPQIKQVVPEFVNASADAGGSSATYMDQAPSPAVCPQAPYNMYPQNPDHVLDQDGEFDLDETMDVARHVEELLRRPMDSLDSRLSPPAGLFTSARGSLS
# STAT5b = target: T2, STAT5b (Homo sapiens, UniProt P51692); assay: Fluorescence polarization competitive binding assay, STAT5b; conditions: for inhibition at 100 µM: read-out: Inhibition of STAT5b at 100 µM; for inhibition at 200 µM: read-out: STAT5b inhibition at 200 μM
# T2 construct: made in house
# T2 sequence (P51692 1-787): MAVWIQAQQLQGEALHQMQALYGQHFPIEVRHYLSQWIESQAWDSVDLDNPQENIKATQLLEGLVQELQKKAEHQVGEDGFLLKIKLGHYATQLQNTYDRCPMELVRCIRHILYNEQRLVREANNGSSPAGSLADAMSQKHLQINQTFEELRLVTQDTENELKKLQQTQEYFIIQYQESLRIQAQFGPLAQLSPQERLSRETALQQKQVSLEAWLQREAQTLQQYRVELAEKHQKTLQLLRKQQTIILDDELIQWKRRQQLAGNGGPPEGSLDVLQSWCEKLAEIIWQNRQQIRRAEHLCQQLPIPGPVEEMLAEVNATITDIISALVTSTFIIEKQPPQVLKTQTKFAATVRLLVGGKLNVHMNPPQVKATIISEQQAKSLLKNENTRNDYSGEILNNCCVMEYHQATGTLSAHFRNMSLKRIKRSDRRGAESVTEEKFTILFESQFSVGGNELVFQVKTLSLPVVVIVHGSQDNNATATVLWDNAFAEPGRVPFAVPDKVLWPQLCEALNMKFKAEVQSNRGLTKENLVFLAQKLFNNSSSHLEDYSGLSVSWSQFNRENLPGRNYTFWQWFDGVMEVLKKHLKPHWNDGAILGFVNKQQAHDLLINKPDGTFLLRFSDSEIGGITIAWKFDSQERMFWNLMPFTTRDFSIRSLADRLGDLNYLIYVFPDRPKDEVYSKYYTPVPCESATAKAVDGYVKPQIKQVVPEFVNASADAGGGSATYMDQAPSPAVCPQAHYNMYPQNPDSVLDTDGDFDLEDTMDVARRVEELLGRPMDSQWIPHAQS
# STAT3 = STAT3 (Homo sapiens, UniProt P40763); assay: Fluorescence polarization competitive binding assay, STAT3 SH2 domain; conditions: for inhibition at 100 µM: read-out: Inhibition of STAT3 at 100 µM; for inhibition at 200 µM: read-out: STAT3 inhibition at 200 μM
# STAT3, sequence (P40763 whole entry, species assumed, the tested form may be a part): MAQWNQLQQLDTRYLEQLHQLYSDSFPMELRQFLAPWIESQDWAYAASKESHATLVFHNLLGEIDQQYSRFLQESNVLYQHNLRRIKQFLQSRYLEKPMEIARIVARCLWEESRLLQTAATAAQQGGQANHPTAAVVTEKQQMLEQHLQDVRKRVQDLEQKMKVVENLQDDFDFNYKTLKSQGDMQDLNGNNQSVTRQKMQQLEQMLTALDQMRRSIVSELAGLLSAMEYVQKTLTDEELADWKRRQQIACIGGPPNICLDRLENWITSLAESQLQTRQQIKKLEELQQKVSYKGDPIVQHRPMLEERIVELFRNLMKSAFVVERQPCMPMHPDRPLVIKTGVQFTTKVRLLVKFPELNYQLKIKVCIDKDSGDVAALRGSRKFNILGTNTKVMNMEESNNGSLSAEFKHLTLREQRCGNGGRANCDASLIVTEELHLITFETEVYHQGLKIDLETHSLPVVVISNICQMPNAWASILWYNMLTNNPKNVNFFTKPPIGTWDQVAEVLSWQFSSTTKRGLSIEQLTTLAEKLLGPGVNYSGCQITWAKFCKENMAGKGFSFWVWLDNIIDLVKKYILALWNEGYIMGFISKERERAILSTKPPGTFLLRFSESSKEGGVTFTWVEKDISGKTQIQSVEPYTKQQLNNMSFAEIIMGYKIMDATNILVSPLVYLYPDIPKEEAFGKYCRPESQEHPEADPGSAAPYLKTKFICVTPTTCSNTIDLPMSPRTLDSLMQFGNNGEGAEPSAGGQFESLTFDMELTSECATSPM
# From the text: Expression and purification of STAT1, STAT3, STAT4, STAT5a, STAT5b, STAT5a Trp566Arg, STAT5b Arg566Trp, STAT5b 6M, STAT5b 7M, STAT6, and Lck have previously been described.[4, 12] STAT proteins were purified over a single His-Bind resin (Millipore) column.
# Wild-type and mutant STAT5a/b proteins used for activity analysis of 20 were purified over two successive His-Bind resin columns.[4, 13]
# Fluorescence Polarization assays
# Competitive binding assays based on fluorescence polarization were essentially carried out as described.[14] Unless stated otherwise, the following final concentration of proteins were used:
# STAT4; 105 nM for STAT6; 30 nM for Lck. Final concentration of all peptides: 10 nM. Peptides used: 5-carboxyfluorescein-GpYLVLDKW for STAT5a/b and point mutants thereof; 5-carboxyfluorescein-GpYLPQTV-NH2 for STAT3; 5-carboxyfluorescein-GpYDKPHVL for STAT1; 5-carboxyfluorescein-GpYLPQNID-OH for STAT4; 5-carboxyfluorescein-
# analysis of 20 against wild-type (wt) STAT5a/b and STAT5a/b point mutants, the following concentrations of double-purified protein were used, which reflect the approximate Kd values of the interactions with 5-carboxyfluorescein-GpYLVLDKW: STAT5a wt: 147 nM; STAT5b wt:
# STAT5b 6M: 80 nM; STAT5b 7M: 282 nM. Assay buffer: 10 mM Tris (pH 8.0), 50 mM NaCl, 1 mM EDTA, 1 mM DTT, 0.1 % Nonidet P-40 substitute, and 2 % DMSO in water. A major part of the pipetting was done using a Biomek FXp sceening robot (Beckman-Coulter). Protein and test compounds were incubated for 1 h, followed by addition of the fluorescein-labeled peptide.
# Fluorescence polarization was measured after another hour using an Infinite F500 plate reader (Tecan). IC50 values were converted to Ki-values using the published equation.[15]
# endogenous STAT5a/b = assay: Phosphorylation of endogenous STAT5a/b in K562 cells (Western blot)
# Method: In these cells, both STAT5a and STAT5b are constitutively phosphorylated on Tyr694 (STAT5a) and Tyr699 (STAT5b), respectively, by Bcr‐Abl. Since phosphorylation is dependent on the function of the SH2 domain, a STAT5 SH2 domain inhibitor will reduce the ability of STAT5 to be tyrosine phosphorylated by Bcr‐Abl (Figure 5 B).
# Chronic myeloid leukemia K562 cells were obtained from DSMZ (Braunschweig, Germany).
# K562 cells were cultured in RPMI 1640 medium (Gibco Life Technologies), supplemented by 10 % (v/v) FBS (Gibco Life Technologies), 2 mM L-glutamine (Gibco Life Technologies) and 1 % (v/v) penicillin/streptomycin (Gibco Life Technologies), at 37 °C, 5 % CO2 and 95 %
# In brief, cells were transfected with plasmid encoding either human wild-type STAT5a-GFP or STAT5b-GFP. K562 cells (6 x 10^5 cells per well) were seeded into 24-well plate (Corning) and were transfected using Fugene HD Transfection Reagent (Promega) with a 4:1 ratio of Fugene:DNA. […] After harvesting, cells were centrifuged at 3.000 rpm at 4 °C for 5 min. […] Primary antibodies (phospho-STAT5, STAT5, β-Actin; 1:1000, Cell Signaling) were detected using α-rabbit-HRP secondary antibody (1:3000, Dako) and ECL (Western Lightning Plus chemiluminescence reagent, Perkin-Elmer).
# (§1) Visualization was carried out using an ImageQuant digital imaging system (GE Healthcare) and ImageJ software (NIH) was used for quantitative analysis.[17]
# [1] = target: T3, STAT5a‐GFP fusion protein (Homo sapiens, UniProt P42229); conditions: K562 cells, 4 h treatment
# T3 sequence (P42229 1-794): T1 sequence (P42229 1-794)
# Method: (§2) 27 was tested for its ability to prevent phosphorylation of STAT5a in K562 cells, a human chronic myelogenous leukemia cell line. In these cells, both STAT5a and STAT5b are constitutively phosphorylated on Tyr694 (STAT5a) and Tyr699 (STAT5b), respectively, by Bcr‐Abl. Since phosphorylation is dependent on the function of the SH2 domain, a STAT5 SH2 domain inhibitor will reduce the ability of STAT5 to be tyrosine phosphorylated by Bcr‐Abl (Figure 5 B).
# (§3) C) Effect of 27 on phosphorylation of STAT5a in STAT5a‐GFP‐transfected K562 cells, and D) on phosphorylation of STAT5b in STAT5b‐GFP‐transfected K562 cells. E, F) Quantitation of the data shown in C) (n=4), and D) (n=3), respectively. Phospho‐STAT5a/b‐GFP levels are normalized against total STAT5a/b‐GFP. All error bars represent standard deviations (s.d.).
# (§4) Chronic myeloid leukemia K562 cells were obtained from DSMZ (Braunschweig, Germany). […]
# (§5) Transfection of cultured K562 cells and Western blotting was performed as previously described.[14, 16] […] Primary antibodies (phospho-STAT5, STAT5, β-Actin; 1:1000, Cell Signaling) were detected using α-rabbit-HRP secondary antibody (1:3000, Dako) and ECL (Western Lightning Plus chemiluminescence reagent, Perkin-Elmer).
# as §1
# STAT5b‐GFP construct = target: T4, STAT5b‐GFP construct (Homo sapiens, UniProt P51692); conditions: K562 cells, 4 h treatment
# T4 sequence (P51692 1-787): T2 sequence (P51692 1-787)
# Method: as §2, §3, §4, §5, §1
# [2] = FP assay, IC50 converted to Ki, read-out: STAT5a K i
compound,measurement,setting,value
COc1cc(-c2cc(-c3cc(OC)c(OC)c(OC)c3)cc(C(F)P(=O)(O)O)c2)cc(OC)c1OC (centres unmarked) [Compound 26],Ki,STAT5a; [2],28 ± 3 µM
same,selectivity over STAT5b and other STAT proteins,STAT5a; FP assays,retained selectivity over STAT5b and other STAT proteins
CC(=O)Nc1ccc(C=CC(=O)c2cccc(OP(=O)(O)O)c2)cc1 [Compound 4],inhibition at 100 µM,STAT5a,57 ± 2%
same,inhibition at 100 µM,STAT5b,52 ± 4%
same,inhibition at 100 µM,STAT3,29 ± 7%
O=C(c1ccc([N+](=O)[O-])cc1)c1coc2ccc(OP(=O)(O)O)cc12 [Compound 5],inhibition at 100 µM,STAT5a,87 ± 2%
same,inhibition at 100 µM,STAT5b,88 ± 1%
same,inhibition at 100 µM,STAT3,26 ± 8%
COc1cc(-c2cc(-c3cc(OC)c(OC)c(OC)c3)cc(C(F)(F)P(=O)(O)O)c2)cc(OC)c1OC [Compound 25],Ki,STAT5a; [2],52 ± 3 µM
O=P(O)(O)Oc1cc(-c2ccccc2)cc(-c2ccccc2)c1 [Compound 11],IC50,STAT5a,47.9 ± 4.3 µM
same,Ki,STAT5a,23.7 ± 2.1 µM
same,IC50,STAT5b,95 ± 3 µM
same,Ki,STAT5b,48.4 ± 2 µM
same,inhibition at 200 µM,STAT3,48 ± 1%
COc1cc(-c2cc(CP(=O)(O)O)cc(-c3cc(OC)c(OC)c(OC)c3)c2)cc(OC)c1OC [Compound 24],Ki,STAT5a; [2],75 ± 13 µM
O=P(O)(O)Oc1cc(-c2cc(F)c(F)c(F)c2)cc(-c2cc(F)c(F)c(F)c2)c1 [Compound 22],IC50,STAT5a,21.9 ± 2.1 µM
same,Ki,STAT5a,10.8 ± 1.1 µM
same,IC50,STAT5b,46.9 ± 0.9 µM
same,Ki,STAT5b,23.3 ± 0.4 µM
same,IC50,STAT3,102 ± 9 µM
same,Ki,STAT3,50.4 ± 4.2 µM
COc1ccc(-c2cc(OP(=O)(O)O)cc(-c3ccc(OC)c(OC)c3OC)c2)c(OC)c1OC [Compound 21],IC50,STAT5a,111 ± 10 µM
same,Ki,STAT5a,55.2 ± 4.9 µM
same,inhibition at 200 µM,STAT5b,28 ± 2%
same,inhibition at 200 µM,STAT3,15 ± 3%
COc1cccc(-c2cc(OP(=O)(O)O)cc(-c3cccc(OC)c3OC)c2)c1OC [Compound 16],IC50,STAT5a,45.1 ± 9.8 µM
same,Ki,STAT5a,22.3 ± 4.8 µM
same,inhibition at 200 µM,STAT5b,40 ± 2%
same,inhibition at 200 µM,STAT3,15 ± 2%
COc1cc(OC)cc(-c2cc(OP(=O)(O)O)cc(-c3cc(OC)cc(OC)c3)c2)c1 [Compound 17],IC50,STAT5a,34.7 ± 4.5 µM
same,Ki,STAT5a,17.1 ± 2.2 µM
same,IC50,STAT5b,73.4 ± 5 µM
same,Ki,STAT5b,36.5 ± 2.5 µM
same,inhibition at 200 µM,STAT3,50 ± 3%
COc1cc(-c2cccc(OP(=O)(O)O)c2)cc(OC)c1OC [Compound 23],IC50,STAT5a,106 ± 4 µM
same,Ki,STAT5a,53 ± 2.1 µM
same,drop in activity against STAT5a on deletion of one phenyl ring of 20,STAT5a; compared with 20,5 fold
same,inhibition at 200 µM,STAT5b,39 ± 1%
same,inhibition at 200 µM,STAT3,40 ± 1%
CN(C1CCCCC1)S(=O)(=O)c1cccc(C(=O)N2CCN(c3ccc(OP(=O)(O)O)cc3)CC2)c1 [Compound 9],inhibition at 100 µM,STAT5a,41 ± 8%
same,inhibition at 100 µM,STAT5b,23 ± 8%
same,inhibition at 100 µM,STAT3,33 ± 5%
O=P(O)(O)Oc1cc(-c2ccc3c(c2)OCCO3)cc(-c2ccc3c(c2)OCCO3)c1 [Compound 19],IC50,STAT5a,22.5 ± 3.8 µM
same,Ki,STAT5a,11.1 ± 1.9 µM
same,IC50,STAT5b,71.2 ± 5.7 µM
same,Ki,STAT5b,35.4 ± 2.8 µM
same,IC50,STAT3,104 ± 4 µM
same,Ki,STAT3,51.2 ± 2 µM
O=P(O)(O)Oc1cc(-c2ccc(Cl)cc2)cc(-c2ccc(Cl)cc2)c1 [Compound 10],IC50,STAT5a,42.2 ± 3.3 µM
same,Ki,STAT5a,20.9 ± 1.6 µM
same,IC50,STAT5b,37.7 ± 0.05 µM
same,Ki,STAT5b,18.7 ± 0.02 µM
same,IC50,STAT3,38.4 ± 1.7 µM
same,Ki,STAT3,18.9 ± 0.9 µM
COc1ccc(-c2cc(O)cc(-c3ccc(OC)cc3)c2)cc1 [Compound 12 a],STAT5a inhibition at 200 μM,"STAT5a; FP assay, 200 µM",no inhibition
same,STAT5b inhibition at 200 μM,"STAT5b; FP assay, 200 μM (highest concentration tested)",no inhibition
same,STAT3 inhibition at 200 μM,"STAT3; FP assay, 200 µM",no inhibition
O=C(C=Cc1c(F)c(F)c(F)c(F)c1F)c1cccc(OP(=O)(O)O)c1 [Compound 2],inhibition at 100 µM,STAT5a,51 ± 4%
same,inhibition at 100 µM,STAT5b,37 ± 2%
same,inhibition at 100 µM,STAT3,43 ± 2%
COc1ccc(-c2cc(OP(=O)(O)O)cc(-c3ccc(OC)cc3)c2)cc1 [Compound 12],IC50,STAT5a,27.9 ± 1.7 µM
same,Ki,STAT5a,13.8 ± 0.8 µM
same,IC50,STAT5b,77.5 ± 0.4 µM
same,Ki,STAT5b,38.5 ± 0.2 µM
same,IC50,STAT3,156 ± 12 µM
same,Ki,STAT3,77.1 ± 5.8 µM
COc1ccc(-c2cc(OP(=O)(O)O)cc(-c3ccc(Cl)cc3)c2)cc1 [Compound 1],IC50,STAT5a,39.9 ± 1.9 µM
same,Ki,STAT5a,19.7 ± 0.9 µM
same,inhibition at 100 µM,STAT5a,73 ± 5%
same,IC50,STAT5b,49.4 ± 3.3 µM
same,Ki,STAT5b,24.5 ± 1.6 µM
same,inhibition at 100 µM,STAT5b,73 ± 3%
same,IC50,STAT3,120 ± 10 µM
same,Ki,STAT3,59.2 ± 5 µM
same,inhibition at 100 µM,STAT3,43 ± 5%
COc1cccc(-c2cc(OP(=O)(O)O)cc(-c3cccc(OC)c3)c2)c1 [Compound 13],IC50,STAT5a,32.3 ± 5.7 µM
same,Ki,STAT5a,16 ± 2.8 µM
same,IC50,STAT5b,86.7 ± 3.1 µM
same,Ki,STAT5b,43.1 ± 1.5 µM
same,inhibition at 200 µM,STAT3,51 ± 2%
COc1ccc(-c2cc(OP(=O)(O)O)cc(-c3ccc(OC)c(OC)c3)c2)cc1OC [Compound 15],IC50,STAT5a,33.4 ± 5.2 µM
same,Ki,STAT5a,16.5 ± 2.5 µM
same,inhibition at 200 µM,STAT5b,44 ± 3%
same,inhibition at 200 µM,STAT3,43 ± 2%
O=P(O)(O)Oc1cc(-c2ccc3c(c2)OCO3)cc(-c2ccc3c(c2)OCO3)c1 [Compound 18],IC50,STAT5a,28.4 ± 4.4 µM
same,Ki,STAT5a,14 ± 2.1 µM
same,IC50,STAT5b,56.4 ± 1 µM
same,Ki,STAT5b,28 ± 0.5 µM
same,IC50,STAT3,129 ± 5 µM
same,Ki,STAT3,63.8 ± 2.3 µM
O=C(C=Cc1ccccc1C(F)(F)F)c1cccc(OP(=O)(O)O)c1 [Compound 3],inhibition at 100 µM,STAT5a,37 ± 9%
same,inhibition at 100 µM,STAT5b,31 ± 3%
same,inhibition at 100 µM,STAT3,53 ± 3%
O=C(CCNS(=O)(=O)c1ccc(C2CCCCC2)cc1)N1CCN(c2ccc(OP(=O)([O-])[O-])cc2)CC1.[Na+].[Na+] [Compound 8],Inhibition of STAT5a at 100 µM,"STAT5a; FP assay, 100 µM",65±5%
same,Inhibition of STAT5b at 100 µM,"STAT5b; FP assay, 100 µM",63±1%
same,Inhibition of STAT3 at 100 µM,"STAT3; FP assay, 100 µM",33±2%
O=C(Cn1ccc2ccccc21)Nc1cccc(OP(=O)(O)O)c1 [Compound 6],inhibition at 100 µM,STAT5a,46 ± 6%
same,inhibition at 100 µM,STAT5b,24 ± 14%
same,inhibition at 100 µM,STAT3,11 ± 6%
O=C(Nc1cccc(OP(=O)(O)O)c1)c1cccc(S(=O)(=O)N2CCCC2)c1 [Compound 7],inhibition at 100 µM,STAT5a,26 ± 17%
same,inhibition at 100 µM,STAT5b,4 ± 9%
same,inhibition at 100 µM,STAT3,3 ± 2%
COc1cc(-c2cc(-c3cc(OC)c(OC)c(OC)c3)cc(C(F)P(=O)(OCOC(=O)C(C)(C)C)OCOC(=O)C(C)(C)C)c2)cc(OC)c1OC (centres unmarked) [Compound 27],phosphorylation of endogenous STAT5a/b,endogenous STAT5a/b,reduced to a substantially lower degree than that of STAT5a‐GFP
same,phosphorylation of STAT5a Tyr694 in the STAT5a-GFP fusion protein,[1],inhibited in a dose‐dependent manner
same,phosphorylation of Tyr699 in the STAT5b-GFP construct,STAT5b‐GFP construct,only minimally affected
COc1ccccc1-c1cc(OP(=O)(O)O)cc(-c2ccccc2OC)c1 [Compound 14],IC50,STAT5a,88.7 ± 6.1 µM
same,Ki,STAT5a,43.9 ± 3 µM
same,IC50,STAT5b,158 ± 1 µM
same,Ki,STAT5b,78.6 ± 0.4 µM
same,inhibition at 200 µM,STAT3,28 ± 1%
